Values quoted from earlier work in patent publication US7132452B2, “Topical formulation having effects on alleviating pain/inflammation caused by herpes virus infection” (priority 2003, dated 2006).

solubility in water | SMILES
relatively low solubility in water | O=C(O)Cc1ccccc1Nc1c(Cl)cccc1Cl [diclofenac, 2-(2,6-dichloro-anilino)-phenyl-acetic acid]
very low solubility in water | O=C(c1ccccc1)c1ccc2n1CCC2C(=O)O (racemic) [ketorolac, (±)-5-benzoyl-2,3-dihydro-1H-pyrrolizine-1-carboxylic acid]

SMILES | solubility in water
O=C(c1ccccc1)c1ccc2n1CCC2C(=O)O (stereo not drawn) [ketorolac tromethamine] | much more water soluble than the free acid form of ketorolac
